From paper PMC7705865 (2020) come the findings set out here.

SMILES strings stand for the structures.

The test system of assay [1] is 1bf (DNA, aptamer, artificial imidazole 2'-deoxyribonucleoside (Im) replacing C at 3 and G at 25 (Im:Im mispair)) ACCTGGGGGAGTATTGCGGAGGAAGGT
Briefly: elution from ATP-agarose column. The note with it: 300 mM Na+, 5 mM Mg2+; 20 mM MOPS pH 7.4; 3 mM GMP; no elution of aptamer from immobilised ATP.

Assay [2] deals with 1cf (DNA, aptamer, artificial imidazole 2'-deoxyribonucleoside (Im) replacing T at 4 and A at 24 (Im:Im mispair)) ACCTGGGGGAGTATTGCGGAGGAAGGT
Briefly: elution from ATP-agarose column. The conditions noted are these: 300 mM Na+, 5 mM Mg2+; 20 mM MOPS pH 7.4; 3 mM GMP; no elution of aptamer from immobilised ATP.

Assay [3] deals with 1df (DNA, aptamer, artificial imidazole 2'-deoxyribonucleoside (Im) replacing G at 11 and C at 17 (Im:Im mispair)) ACCTGGGGGAGTATTGCGGAGGAAGGT
Briefly: elution from ATP-agarose column. The note with it: 300 mM Na+, 5 mM Mg2+; 20 mM MOPS pH 7.4; 3 mM GMP; no elution of aptamer from immobilised ATP.

Assay [4] deals with 1af (DNA, aptamer) ACCTGGGGGAGTATTGCGGAGGAAGGT
Put plainly: elution from ATP-agarose column. The note with it: 300 mM Na+, 5 mM Mg2+; 20 mM MOPS pH 7.4; 3 mM GMP; no elution of aptamer from immobilised ATP.

In assay [5] the test system is 1a (DNA, aptamer) ACCTGGGGGAGTATTGCGGAGGAAGGT
Put plainly: fluorescence, structure-switching strand displacement (system B). The conditions noted are these: 300 mM Na+, 5 mM Mg2+; 20 mM MOPS pH 8.1, 22 °C; 1 mM AMP; strands 2f (fluorescein) and 2q (DABCYL) displaced.

The subject of assay [6] is 1af (DNA, aptamer) ACCTGGGGGAGTATTGCGGAGGAAGGT
Put plainly: fluorescence, structure-switching strand displacement. The note with it: 300 mM Na+, 5 mM Mg2+; 20 mM MOPS pH 7.4, 22 °C; 1 mM AMP; DABCYL strand 1q displaced.

Assay [7] deals with 1df (DNA, aptamer, artificial imidazole 2'-deoxyribonucleoside (Im) replacing G at 11 and C at 17 (Im:Im mispair)) ACCTGGGGGAGTATTGCGGAGGAAGGT
Described as above. The conditions noted are these: 300 mM Na+, 5 mM Mg2+; 20 mM MOPS pH 7.4, 22 °C; 1 mM AMP; DABCYL strand 1q displaced.

In assay [8] the test system is 1bf (DNA, aptamer, artificial imidazole 2'-deoxyribonucleoside (Im) replacing C at 3 and G at 25 (Im:Im mispair)) ACCTGGGGGAGTATTGCGGAGGAAGGT
Described as above. The note with it: 300 mM Na+, 5 mM Mg2+; 20 mM MOPS pH 7.4, 22 °C; 1 mM AMP; DABCYL strand 1q displaced.

The test system of assay [9] is 1cf (DNA, aptamer, artificial imidazole 2'-deoxyribonucleoside (Im) replacing T at 4 and A at 24 (Im:Im mispair)) ACCTGGGGGAGTATTGCGGAGGAAGGT
The assay is described as above. The conditions noted are these: 300 mM Na+, 5 mM Mg2+; 20 mM MOPS pH 7.4, 22 °C; 1 mM AMP; DABCYL strand 1q displaced.

Take `Nc1nc2c(ncn2[C@@H]2O[C@H](COP(=O)(O)O)[C@@H](O)[C@H]2O)c(=O)[nH]1`: the binding entry in [1], in [2], in assay [3] and in [4] was “no” throughout.

For `Nc1ncnc2c1ncn2[C@@H]1O[C@H](COP(=O)(O)O)[C@@H](O)[C@H]1O`, the binding entry in assay [5] was “yes”; in assay [6], “yes”; in [7], “weak”; in assay [8], “yes”; in assay [9] it was “yes”.
